Data from the METLIN SMRT retention time set (Domingo-Almenara et al. 2019).
One block for each molecule: values may come before it.

Assay: gradient 5% acetonitrile 3 min, to 50% in 2 min, to 85% in 15 min, held 3 min, 100 µL/min
Conditions: column: Zorbax Extend-C18 2.1 x 50 mm; eluents: water / acetonitrile, 0.1% formic acid
Method in brief: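 The system's dead and dwell volumes were 40 μL and 900 μL, with a Zorbax Extend-C18 column (2.1 × 50 mm, 1.8 μm) run at 100 μL/min in water and acetonitrile containing 0.1% formic acid each. Pure standards were analyzed in mixtures of ~100 molecules by HPLC–quadrupole time-of-flight mass spectrometry in positive and negative ionization mode. Retention time was assigned from computationally picked, manually inspected adduct peaks.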

SMILES: COc1ccc(NC(=O)Cn2nc(N3CCOCC3)c3ccccc3c2=O)c(OC)c1
RP-LC retention time: 766 s

SMILES: Cc1ccc(S(=O)(=O)Nc2n[nH]nc2C(N)=O)cc1
RP-LC retention time: 603 s

SMILES: O=C(Nc1cccc(Br)c1)C1CC(=O)N(CCc2c[nH]c3ccc(F)cc23)C1 (centres undefined)
RP-LC retention time: 890 s

SMILES: Cc1ccc(-n2c(=O)n(CC(=O)Nc3ccccc3C)c3cccnc32)cc1
RP-LC retention time: 865 s

SMILES: CCOc1ccc(NC(=O)c2cc(=O)c3cc(CC)ccc3o2)c2cccnc12
RP-LC retention time: 693 s

SMILES: Cc1ccccc1Cc1c(C)nc2nc(SCC(=O)NCCCN3CCOCC3)nn2c1C
RP-LC retention time: 643 s

SMILES: Cc1ccc(NC(=O)CN2C(=O)CCCc3cc(S(=O)(=O)N4CCC(C)CC4)ccc32)cc1
RP-LC retention time: 976 s

SMILES: CCOC(=O)c1c(C)c(C(=O)CN(CC2CCCO2)C(=O)c2ccc(Cl)cc2)c(C)n1C (centres undefined)
RP-LC retention time: 987 s

SMILES: CCCNC(=O)N(CC(=O)N1CCc2sccc2C1COc1ccc(C)cc1)CC1CCCO1 (centres undefined)
RP-LC retention time: 1000 s

SMILES: O=C(Cc1ccsc1)N1CCC(c2nc(-c3ccccc3)no2)C1 (centres undefined)
RP-LC retention time: 864 s

SMILES: O=C([C@@H]1C[C@H](F)CN1S(=O)(=O)c1ccc(F)c(F)c1)N1CCCCC1
RP-LC retention time: 780 s

SMILES: Fc1cccc(-c2noc(-c3nnn4c3COC(c3ccc(Cl)cc3)C4)n2)c1 (centres undefined)
RP-LC retention time: 1170 s

SMILES: O=C(NCc1nnnn1C1CCCCC1)c1cccs1
RP-LC retention time: 715 s

SMILES: CCN(Cc1ccc(OC)cc1)Cc1cc(=O)n2ccc(C)cc2n1
RP-LC retention time: 619 s

SMILES: COc1ccccc1N=NNc1ccccc1OC
RP-LC retention time: 933 s

SMILES: COc1cc([C@@H]2c3cc4c(cc3[C@@H](O)[C@H]3COC(=O)[C@H]23)OCO4)cc(OC)c1O
RP-LC retention time: 680 s

SMILES: Cc1cccn2c(=O)nc(SCC(=O)NCc3ccco3)nc12
RP-LC retention time: 610 s

SMILES: CCCc1c(C(=O)O)nnn1Cc1ccccc1
RP-LC retention time: 746 s

Second part, the molecule after the results:

RP-LC retention time: 678 s
SMILES: Cc1cc(C)cc(NS(=O)(=O)c2cc3n(c2)CCCNC3=O)c1

RP-LC retention time: 651 s
SMILES: COCCNC(=O)C1CCc2sc(C(=O)N3CCCCC3)cc2C1 (centres undefined)

RP-LC retention time: 976 s
SMILES: COc1cc(NC(=O)C(=O)c2cccn2C)cc(OC)c1

RP-LC retention time: 926 s
SMILES: O=C(Nc1cccc(C(F)(F)F)c1)NC1CCN(c2ccccc2)C1=O (centres undefined)

RP-LC retention time: 1070 s
SMILES: COc1ccc(-c2ccc(=O)n(Cc3nc(-c4ccc(Cl)cc4)no3)n2)cc1

RP-LC retention time: 1010 s
SMILES: COc1ccc(C(=O)Nc2nc(-c3ccc([N+](=O)[O-])cc3)cs2)cc1OC

RP-LC retention time: 572 s
SMILES: CC(C(=O)NCCN1CCN(C)CC1)n1c2ccccc2c2cnn(C)c(=O)c21 (centres undefined)

RP-LC retention time: 897 s
SMILES: O=C(Cn1c(=O)oc2ccccc21)N1CCCC(COCc2ccccc2)C1 (centres undefined)

RP-LC retention time: 638 s
SMILES: COc1ccc(C(=O)NCc2ccc(OCCN(C)C)cc2)cc1OC

RP-LC retention time: 700 s
SMILES: CCS(=O)(=O)N1CCCc2cc(C(=O)NCCCOC)ccc21

RP-LC retention time: 1140 s
SMILES: Cc1ccc(C(=O)N2CCN(c3nc4ccccc4n(CC(C)C)c3=O)CC2)s1

RP-LC retention time: 618 s
SMILES: CCC(C)NC(=O)Cn1c(=O)c(=O)n(CC)c2ncccc21 (centres undefined)

RP-LC retention time: 603 s
SMILES: Cc1ccc(-c2cc(C(=O)N3CCN(C)CC3)[nH]n2)cc1C

RP-LC retention time: 662 s
SMILES: Clc1ccc(-c2cn3cccnc3n2)cc1

RP-LC retention time: 1050 s
SMILES: CC(C)c1ccc(OCC(=O)N(Cc2ccc(Br)o2)C2CCS(=O)(=O)C2)cc1 (centres undefined)

RP-LC retention time: 938 s
SMILES: Cc1cc(-c2nnc(-c3ccccc3)o2)c(C)n1CC(=O)Nc1cccc(F)c1

RP-LC retention time: 627 s
SMILES: O=C(NCc1ccccn1)C1CC(=O)N(CCc2c[nH]c3ccc(Cl)cc23)C1 (centres undefined)

RP-LC retention time: 799 s
SMILES: CCc1nn2c(S(=O)(=O)NC3CCCC3)c(C)nc2s1

RP-LC retention time: 690 s
SMILES: Cc1cc(N2CCN(C)CC2)nc2ccc(NC(=O)C(C)Oc3ccc(Cl)cc3Cl)cc12 (centres undefined)

RP-LC retention time: 776 s
SMILES: COc1cccc(NC(=O)CN2C(=O)c3ccccc3Sc3ncccc32)c1

RP-LC retention time: 1060 s
SMILES: Cc1ccc2c(c1)N(Cc1ccc(F)cc1)N=C(C(=O)N1CCC(C)CC1)S2(=O)=O

RP-LC retention time: 691 s
SMILES: COc1ccc(-n2nnc(C(=O)O)c2-c2ccccc2)cc1OC

RP-LC retention time: 1130 s
SMILES: CCCn1cc(C(=O)Nc2ccc(OC)cc2C)c(=O)c2ccc(C)nc21

RP-LC retention time: 671 s
SMILES: COc1cccc(S(=O)(=O)N2CCCN(C3CCN(Cc4ccccc4)C3=O)CC2)c1 (centres undefined)

RP-LC retention time: 948 s
SMILES: CCOc1ccccc1NC(=O)CSc1nnc2c3cc(-c4ccc(F)cc4)nn3ccn12

RP-LC retention time: 635 s
SMILES: O=C(Cn1nc2n(c1=O)CCCC2)Nc1ccc2c(c1)OCCO2
